Experimental data as given in patent publication US20130273546A1, “LOW TEMPERATURE ENZYME AND METHOD THEREOF” (UNIVERSITI PUTRA MALAYSIA, priority 2009, published 2013).

B1: recombinant PI12 protease: cold-adapted serine protease of L. antarcticum PI12 (SEQ ID NO: 2) expressed in Pichia pastoris (protein, listed as Leucosporidium antarcticum)
chain: MLFLPVLLLLLPGVTAFLNPVTNRATNAISSTQYLSNAYILELDLSTPGLVKRDSTPDSILEDVLTSVGRNGIKYQLRHRFISPTLFHGASITVPPGISRSQIASLRGIKRVWPVRKFSRPSAVVDADGGGSGFSGSPIKAALMGVKELGKRANAYAGDTFGPHVMTGVNETHEAGLLGAGIKIGVLDTGVDYLNPILGGCFGPGCHMSFGYDLVGDDYDGDNAPVPDVDPFASCDPHGTHVTGIIGALPNAFGFTGVAPAATLGHYRVFGCTGFVGEDIILAGLMRGVEDNCNVLTLSLGGPGGWVKGTPASILIDQIEAQGILVTVATGNSGAEGMFFSESPASTINGLSIASTDVTDLIAYNATVSGQPAIPYLSATPLNVVANSFRVHFTSTDPNNPVDACSPLPAGAPDFANYVTVVQRGTCTFVTKYQNVLNAGGKIVLLYNSEGAGNLPYLTPNGVGIDAVAGLRRSDGLKLLSYYQNANKRLTLRFPKGKIVAGLTDTITGGLISGYSTFGPTNDLYGQPTLSAPGGNILSTFPLSEGGVAVISGTSMSCPFVAGSAAVLMAARASENLTPLEIRSLLTTTAKLTPVSLLGSTPLVSVIRQGGGLVQVAKALAAKTLISPHELLLNDTANANYVQTIKIKNTNSWAMKYTFSSAVAQGLGTFDASGDILPTLDPVAVSGAQATVAFNTRILSVAPGATGSVVATITPPVLPVADAARFPIFSGWIRVNGQGARDSSRNEAYTVPYFGLAAKMIDMQVLDTTETIYGPGYAYPFVIDDAIGDIQSTTTSYSRNLGPTVFARFATGTLHYSLDLVLADIAFTPTYPNSSPATRFVKRSLTQHTSAASHLAKRRVSIATINPKATLVADRQLHSDVPIEGNIFTQPFTGRDYLVDAAPTGSTDRTVTFNGQYAENGLVRTAVTGTSYRFLLRALKISGDAMYEDQYESWLSLPFSFRA
B2: Cold-adapted protease PI12: protease from Leucosporidium antarcticum strain PI12 (NCYC 3391), amino acid sequence SEQ ID NO: 2, GenBank CAQ76821 (protein, listed as Leucosporidium antarcticum)
chain: B1 chain

Key:
[1] = test system: Leucosporidium antarcticum strain PI12; assay: Growth of the Antarctic isolate on solid media with antibiotics; type: cell-based; settings: 10 days at 4° C.
Method: Antarctic microorganism isolated strain was grown on different types of solid media (nutrient agar, sabouroud dextrose agar and potato dextrose agar) and several antibiotics for 10 days at 4° C. and the culture characteristics (colony colour, shape, texture) were determined. Simple staining was performed to identify the cell morphology, arrangement and size of the psychrophilic isolate PI12. Scanning electron microscopy (SEM) and transmission electron microscopy (TEM) were also conducted to study the surface features and the internal ultrastructure in thin sections of the PI12 cells. […] The growth for this microorganism was best at 4° C. and decreased through the temperature range tested (4° C.-20° C.) but no growth at over 20° C. […] The Antarctic microorganism strain PI12 was grown and screened qualitatively for the protease production on skim milk agar. The plate was incubated at 4° C. for 10 days. Protease was excreted out of the cells into the surrounding media, catalyzing the breakdown of casein and formed clearing zones around the growth area.

azocasein = assay: Protease activity assay with azocasein as substrate (modified method of Brock et al.), culture supernatants; type: biochemical; settings: GpPro2 20.3 U/mL versus wild-type 1.0 U/mL
Method: After 10 days of incubation, the supernatant was assayed for protease activity. Protease activity was determined by the modified method of Brock et al. (1982). Azocasein (0.5%, 1 mL) was dissolved in 0.1 M Tris-HCl-2 mM CaCl2 pH 7 was pipetted into vials and pre-incubated at 4° C. The reaction was initiated by addition of 100 μL of enzyme solution for 30 min (unless stated otherwise). An equal volume of 10% (w/v) trichloroacetic acid (TCA) was added to terminate the reaction and the mixture was allowed to stand at room temperature for 30 min before centrifugation in eppendorf microcentrifuge at 13,000×g for 10 min. The supernatant was removed and mixed with an equal volume of 1 N NaOH. The absorbance was read at 450 nm using UV/Visible spectrophotometer Ultraspec 2100 pro (Amersham Biosciences, USA). One unit of azocaseinase activity was defined as the amount of enzyme activity which produces an absorbance change of 0.001 per min at 4° C. under the standard assay condition. For control, the enzyme was added at the end of the incubation period. […]
Assay activity of recombinant PI12 protease was determined by the modified method of Brock et a (1982) the assay activity for recombinant PI12 protease was performed at 15° C.

[2] = Temperature profile and storage stability of the protease activity; type: biochemical

| Molecule | resistance of the microorganism toward antibiotic [1] | also measured |
| --- | --- | --- |
| CC1(C)S[C@@H]2[C@H](NC(=O)[C@H](N)c3ccccc3)C(=O)N2[C@H]1C(=O)O [ampicillin] | resistance | – |
| CN[C@@H]1[C@H](O[C@H]2[C@H](O[C@H]3[C@H](O)[C@@H](O)[C@H](N=C(N)N)[C@@H](O)[C@@H]3N=C(N)N)O[C@@H](C)[C@]2(O)C=O)O[C@@H](CO)[C@H](O)[C@H]1O [streptamycin] | resistance | – |
| O=C(N[C@H](CO)[C@H](O)c1ccc([N+](=O)[O-])cc1)C(Cl)Cl [chloramphenicol] | resistance | – |
| B1 | – | recombinant protease activity relative to that produced by wild-type host (azocasein): 20.3 fold |
| B2 | – | optimum temperature [2]: 4 [deg.] C.; enzyme activity retained ([2]; after incubating the enzyme at 4[deg.] C. for about 10 days): One hundred |
